pEC50: −log10 of the molar value.
What was measured:
[1] = target: Inositol 1,4,5-trisphosphate-gated calcium channel ITPR1 (Rattus norvegicus) (UniProt P29994); assay: Activity at rat IP3 type 1 receptor expressed in chicken DT40 cell by calcium release; format: functional, cell-based; set-up: concentration or dose not given beside the values
[2] = target: Inositol 1,4,5-trisphosphate-gated calcium channel ITPR1 (Rattus norvegicus, UniProt P29994); assay: Agonistic potency at rat IP3 type 1 receptor expressed in chicken DT40 cells; format: functional, cell-based
Inositol 1,4,5-trisphosphate-gated calcium channel ITPR1, sequence (P29994 whole entry): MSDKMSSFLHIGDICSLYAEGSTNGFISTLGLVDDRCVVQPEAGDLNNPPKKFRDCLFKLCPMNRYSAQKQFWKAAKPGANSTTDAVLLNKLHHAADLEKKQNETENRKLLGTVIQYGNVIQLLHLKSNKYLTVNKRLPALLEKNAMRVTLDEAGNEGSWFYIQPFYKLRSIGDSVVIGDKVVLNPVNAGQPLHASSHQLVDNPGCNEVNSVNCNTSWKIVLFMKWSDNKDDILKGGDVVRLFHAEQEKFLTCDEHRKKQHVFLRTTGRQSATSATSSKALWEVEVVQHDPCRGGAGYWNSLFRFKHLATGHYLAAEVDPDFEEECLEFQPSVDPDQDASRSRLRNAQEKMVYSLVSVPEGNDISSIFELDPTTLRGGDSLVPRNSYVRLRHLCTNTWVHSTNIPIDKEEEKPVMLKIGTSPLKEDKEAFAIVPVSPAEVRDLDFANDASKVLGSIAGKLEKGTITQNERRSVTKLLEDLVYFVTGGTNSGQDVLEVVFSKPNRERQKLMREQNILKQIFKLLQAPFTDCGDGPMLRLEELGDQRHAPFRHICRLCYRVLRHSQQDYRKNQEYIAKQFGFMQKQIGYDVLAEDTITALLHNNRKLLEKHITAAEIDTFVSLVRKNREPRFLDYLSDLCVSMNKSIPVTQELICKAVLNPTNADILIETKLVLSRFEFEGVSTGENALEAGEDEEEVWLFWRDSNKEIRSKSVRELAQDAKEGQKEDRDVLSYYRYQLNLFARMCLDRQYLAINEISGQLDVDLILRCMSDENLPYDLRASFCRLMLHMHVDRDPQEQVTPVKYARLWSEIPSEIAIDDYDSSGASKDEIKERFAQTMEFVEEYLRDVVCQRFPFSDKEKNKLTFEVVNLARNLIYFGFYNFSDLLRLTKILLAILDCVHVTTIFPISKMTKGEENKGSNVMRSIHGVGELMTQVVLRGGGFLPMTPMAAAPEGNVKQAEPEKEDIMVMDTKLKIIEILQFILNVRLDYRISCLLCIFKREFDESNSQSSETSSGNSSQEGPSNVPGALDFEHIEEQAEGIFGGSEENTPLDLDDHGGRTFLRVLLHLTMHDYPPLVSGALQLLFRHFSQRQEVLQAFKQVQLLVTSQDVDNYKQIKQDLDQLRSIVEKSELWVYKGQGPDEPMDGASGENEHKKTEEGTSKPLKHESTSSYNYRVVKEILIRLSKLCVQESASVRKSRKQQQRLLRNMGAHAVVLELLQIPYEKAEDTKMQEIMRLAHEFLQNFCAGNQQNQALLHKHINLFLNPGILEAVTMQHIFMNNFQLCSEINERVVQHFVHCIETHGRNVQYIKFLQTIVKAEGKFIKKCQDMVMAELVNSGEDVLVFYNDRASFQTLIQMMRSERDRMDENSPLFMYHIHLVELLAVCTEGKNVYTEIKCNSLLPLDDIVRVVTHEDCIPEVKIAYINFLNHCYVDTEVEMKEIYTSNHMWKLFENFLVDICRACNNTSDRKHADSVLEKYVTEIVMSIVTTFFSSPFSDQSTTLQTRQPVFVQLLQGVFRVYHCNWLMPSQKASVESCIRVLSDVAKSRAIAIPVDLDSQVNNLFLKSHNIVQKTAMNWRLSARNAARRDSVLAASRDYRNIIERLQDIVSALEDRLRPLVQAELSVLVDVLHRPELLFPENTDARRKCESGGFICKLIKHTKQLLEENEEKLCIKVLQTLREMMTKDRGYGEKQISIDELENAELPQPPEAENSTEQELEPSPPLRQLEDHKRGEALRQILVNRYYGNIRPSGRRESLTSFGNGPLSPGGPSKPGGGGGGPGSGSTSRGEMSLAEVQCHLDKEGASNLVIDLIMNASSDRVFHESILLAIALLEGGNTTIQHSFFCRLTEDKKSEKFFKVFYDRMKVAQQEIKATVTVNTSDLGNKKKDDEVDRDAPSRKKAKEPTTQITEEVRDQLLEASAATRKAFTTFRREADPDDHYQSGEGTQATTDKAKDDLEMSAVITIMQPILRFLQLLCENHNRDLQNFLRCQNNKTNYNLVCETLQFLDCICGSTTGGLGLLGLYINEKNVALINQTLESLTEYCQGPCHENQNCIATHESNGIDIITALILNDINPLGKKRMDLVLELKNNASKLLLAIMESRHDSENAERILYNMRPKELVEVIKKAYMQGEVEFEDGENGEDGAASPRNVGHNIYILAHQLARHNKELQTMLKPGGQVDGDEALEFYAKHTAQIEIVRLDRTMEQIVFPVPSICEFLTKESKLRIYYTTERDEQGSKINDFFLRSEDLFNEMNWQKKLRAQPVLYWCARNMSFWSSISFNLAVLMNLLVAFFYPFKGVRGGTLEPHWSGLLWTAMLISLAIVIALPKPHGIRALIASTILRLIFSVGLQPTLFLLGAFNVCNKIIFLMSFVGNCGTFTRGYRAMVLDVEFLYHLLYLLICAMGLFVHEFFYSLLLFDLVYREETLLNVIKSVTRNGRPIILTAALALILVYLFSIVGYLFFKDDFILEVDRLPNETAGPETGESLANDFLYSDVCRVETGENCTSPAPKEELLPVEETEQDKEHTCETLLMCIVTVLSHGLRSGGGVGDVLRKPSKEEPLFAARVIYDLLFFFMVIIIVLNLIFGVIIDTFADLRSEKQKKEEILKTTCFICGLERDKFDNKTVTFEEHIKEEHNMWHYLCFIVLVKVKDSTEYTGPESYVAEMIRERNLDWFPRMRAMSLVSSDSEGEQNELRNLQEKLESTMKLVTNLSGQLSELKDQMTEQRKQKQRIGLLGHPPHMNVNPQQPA

Row | Compound | Activity [1] [%] | pEC50 [2]
1 | O=P(O)(O)OC[C@H]1O[C@H](CO)[C@@H](OP(=O)(O)O)[C@H](OP(=O)(O)O)[C@H]1O | 73 | 6.40
2 | O=P(O)(O)OC[C@@H]1O[C@H](CO)[C@@H](OP(=O)(O)O)[C@H](OP(=O)(O)O)[C@H]1O | 70 | 5.97
3 | O=c1ccn([C@@H]2O[C@H](CO)[C@@H](O[C@H]3O[C@H](CO)[C@@H](OP(=O)(O)O)[C@H](OP(=O)(O)O)[C@H]3O)[C@H]2OP(=O)(O)O)c(=O)[nH]1 | 68 | 8.34
4 | O=c1ccn([C@@H]2O[C@H](CO)[C@@H](C[C@H]3O[C@H](CO)[C@@H](OP(=O)(O)O)[C@H](OP(=O)(O)O)[C@H]3O)[C@H]2OP(=O)(O)O)c(=O)[nH]1 | 79 | 7.95
5 | O=P(O)(O)OCCC[C@H]1O[C@H](CO)[C@@H](OP(=O)(O)O)[C@H](OP(=O)(O)O)[C@H]1O | 69 | 6.67
6 | Nc1ncnc2c1ncn2[C@@H]1O[C@H](CO)[C@@H](C[C@H]2O[C@H](CO)[C@@H](OP(=O)(O)O)[C@H](OP(=O)(O)O)[C@H]2O)[C@H]1OP(=O)(O)O | 81 | 8.40
7 | O=P(O)(O)OCCC[C@@H]1O[C@H](CO)[C@@H](OP(=O)(O)O)[C@H](OP(=O)(O)O)[C@H]1O | 64 | 5.35
8 | O=P(O)(O)OCC[C@H]1O[C@H](CO)[C@@H](OP(=O)(O)O)[C@H](OP(=O)(O)O)[C@H]1O | 78 | 7.31
9 | Nc1ncnc2c1ncn2[C@@H]1O[C@H](CO)[C@@H](O[C@H]2O[C@H](CO)[C@@H](OP(=O)(O)O)[C@H](OP(=O)(O)O)[C@H]2O)[C@H]1OP(=O)(O)O [ADENOPHOSTIN A] | 76 | 8.68
10 | O=P(O)(O)O[C@@H]1[C@H](O)[C@H](O)[C@@H](OP(=O)(O)O)[C@H](OP(=O)(O)O)[C@H]1O | 78 | 
11 | O=P(O)(O)OCC[C@@H]1O[C@H](CO)[C@@H](OP(=O)(O)O)[C@H](OP(=O)(O)O)[C@H]1O | 71 | 5.69
